Our source for the melting point values is a melting point compilation (Tetko et al.; mined from patent text by program, amines drawn as free bases though some values may be those of a salt).

Molecules are shown by their SMILES. Bounds are passed on as bounds.

In general, melting point refers to the temperature, or range, at which the solid turns liquid. `CCOC(=O)c1nccn1C1Cc2c(cccc2-c2ccccc2)C1=O` (stereo not given) displayed a melting point of 185 °C.
Take `COc1ccc2nc(COc3ccc(CC(S)C(N)=O)cc3)n(C)c2c1` (stereo not given): the melting point is 204 to 208 °C.
As to `CC(C)c1cc(C(=O)Nc2ccc(C(=O)O)nc2)oc1C(C)C`, the melting point lay in the range of 106 to 108 °C.
`CCCCNc1c(C(=O)OCC)cnc2cn[nH]c12` showed a melting point of 86 to 95 °C.
In the case of `Cn1cc(-c2ccccc2)c(=O)c(-c2cc(Br)ccc2F)c1` it was 148 to 150 °C; in that of `CCOC(=O)c1cc2cc(OC(C)=O)ccc2n1C`, 87 to 89 °C; in that of `O=C(N[C@H](Cc1cccc(C(F)(F)F)c1)[C@@H](O)c1ccc(F)cc1)C1CCCCC1` (racemic), 190 to 191 °C.
The same measure for `CCOc1ccccc1C(=O)NC(=O)NC1CN2CCC1CC2` (stereo not given): 198 to 199 °C; for `COC(=S)c1nc(-c2ccccc2)c(N)nc1N`: 210 °C; for `Nc1cc(C=C2c3ccccc3CCc3ccccc32)ccc1O`: 159 °C.
`CCOC(=O)CCc1cn(-c2ccc([N+](=O)[O-])cn2)nc1C(C)C` showed a melting point of 90 to 91 °C.
The same measure for `NCCCCCNc1ncc2ncnc(Nc3ccc(F)c(Cl)c3)c2n1`: 153 to 155 °C; for `N#Cc1ccc(COC2COc3nc([N+](=O)[O-])cn3C2)cc1` (stereo not given): 166 to 167 °C; for `CC(=O)N1CCC(C(=O)N[C@@H](CC(C)C)C(=O)N[C@@H](C(C)C)[C@@H](O)c2c(-c3ccccc3)c2=O)CC1`: 120 to 124 °C.
The same measure for `COc1cccc(C(=O)NC2(C(=O)N(C)OC)CC2)c1C`: 173 to 175 °C; for `Nc1nc(NCCc2cccc(O)c2)nc2nc(-c3ccco3)nn12`: 190 to 193 °C.
In the case of `CCc1c(C2=NN=C(C)Cc3cc4[nH]c(=O)oc4cc32)sc2cccc(F)c12` it was 297 to 299 °C; in that of `COC(=O)c1cc(Oc2ccc([N+](=O)[O-])cc2)cc(Oc2ccc([N+](=O)[O-])cc2)c1`, 180 to 182 °C.
`COC(=O)c1[nH]c2c(C)ccc(Cl)c2c1C`: the melting point lay in the range of 122 to 123 °C.
Take `CCOC(=O)CCCOc1ccc([N+](=O)[O-])c(C=C2C(=O)NC(=O)N2C)c1`: the melting point was in the range of 161 to 163 °C.
In turn, `NC(=O)c1cc(-c2ccc(F)cc2)sc1N` yielded a melting point of 170 to 171 °C.
The same measure for `COc1ccc(Nc2cc(-c3ccc(F)cc3)nc3ccccc23)cc1Cl`: 260 °C; for `CN(CCc1ccccn1)C(=O)CCSc1cc(C(C)(C)C)c(O)c(C(C)(C)C)c1`: 82 to 84 °C; for `CCCCCCCCCCC#Cc1csc(CC(CO)NC(C)=O)c1` (stereo not given): 55 to 58 °C.
`CCOC(=O)CCCOc1ccc(C23CC4CC(CC(C4)C2)C3)cc1` registered a melting point of 45 to 46 °C.
In the case of `Oc1ccc(-c2ccc3c(Br)c(O)ccc3c2)cc1` it was 208 to 210 °C; in that of `CC(Br)C(=C(C#N)C#N)c1ccccc1` (stereo not given), 103 to 104 °C; in that of `COc1ccc(C(=O)Cc2ccncc2)c2c1OCC2C` (stereo not given), 111 to 117 °C.
In turn, `CCCNC(=O)c1cccc(C2(c3ccc(OC(F)F)cc3)N=C(N)N(C)C2=O)c1` (stereo not given) gave a melting point of 93 to 96 °C.
In turn, `Cc1nc2c(cnn2-c2c(Cl)cc(C(F)(F)F)cc2Cl)c(=O)n1C` displayed a melting point of 195 °C.
`CCN1CC(=O)N(CC)c2cc(Nc3ncc(Cl)c(Nc4ccc(OC)cc4-n4cccn4)n3)c(OC)cc2C1` had a melting point of 97 to 100 °C.
The same measure for `Nc1cc(F)ccc1C=C(Br)Br`: 72 to 73 °C; for `CCOC(=O)C=Cc1c[nH]c2cnc(-n3cncn3)cc12`: 235 to 238 °C.
`CC(C)=CCn1cc(C)nc1[N+](=O)[O-]` had a melting point of 53 to 54 °C.
In the case of `CCNc1c(O)ccc(N(CCO)CCO)c1[N+](=O)[O-]` it was 115 °C; in that of `CNC(=S)C1(c2cccnc2)CCCS1` (stereo not given), 133 °C.
`COc1cc(Nc2c(C#N)cnc3cc4cc(OCCN5CCOCC5)c(OC)cc4cc23)c(Cl)cc1C` came in with a melting point of 220 to 222 °C.
Compound `CCCCCCCCCCCC(=O)OC[C@H]1OCC(=NOCc2ccccc2)[C@@H](O)[C@@H]1O` registered a melting point of 45 to 50 °C.
`CCOc1cc(Cc2cnc(N)nc2N)cc2c1OC(C)(C)C=C2c1ccc(OC)c(OC)c1`: the melting point was in the range of 191 to 192 °C.
In the case of `CCOCc1nc2c(N)nc3ccccc3c2n1CCCCCS(=O)(=O)N(C)C` it was 138 to 142 °C; in that of `O=C(NC1CCCCC1)NS(=O)(=O)c1ccc(CCNC(=O)N2CC3CCCCC3C2=O)cc1` (stereo not given), 139 to 140 °C.
In the case of `CC(C)(C)OC(=O)C1C(C#CC(=O)OCC(Cl)(Cl)Cl)C1(C)C` (stereo not given) it was 70 to 71 °C; in that of `CCOC(=O)c1cn(CCO)c2nc(-c3ccncc3)c(F)cc2c1=O`, 223 to 225 °C.
The same measure for `Cc1cc(OC(F)F)nc(NC(=O)Oc2ccccc2)n1`: 56 to 58 °C; for `CN(C)C(C)(CO)c1cccs1` (stereo not given): 68 to 70 °C.
Take `O=C(c1ccc2c(c1)sc(=O)n2CCOc1ccc(CC(OCC(F)(F)F)C(=O)O)cc1)C1CC1` (stereo not given): the melting point fell in the range of 124 to 128 °C.
The same measure for `O=C(CCl)Nc1ccc2c(c1NC(=O)COc1ccccc1)C(=O)c1ccccc1C2=O`: 217 to 218 °C.
The compound `CCOc1ccc(C(=O)N2c3ccccc3C(N3CCCc4ccccc43)CC2C)cc1OCC` (stereo not given) registered a melting point of 157 to 158 °C.
The same measure for `CSc1nc(Cl)c(-c2ccccc2)c(NN)n1`: 134 to 135 °C.
The same measure for `CCOc1cc(CF)nc(N)n1`: 85 to 87 °C; for `CC(C)(c1ccc(S(=O)(=O)N(CCO)CCO)cc1[N+](=O)[O-])[N+](=O)[O-]`: 109 to 110 °C; for `COC(=O)N1CCC(=C2c3ccccc3CCc3cccnc32)CC1`: 116 to 118 °C.
The same measure for `CCOC(=O)C1=C(C)Nc2ccnc(OCC)c2C1c1ccccc1C(F)(F)F` (stereo not given): 91 to 94 °C; for `COC(=O)c1cccc2c1NCC2`: 70 to 73 °C; for `CC(C)CCN1C(=O)C2(COc3cc4c(cc32)OCCO4)c2c1ccc1ncsc21` (stereo not given): 169 to 171 °C.
`COC1(c2cccc3[nH]ccc23)CCNCC1` came in with a melting point of 216 °C.
In turn, `CCN(CC)CCNC(=O)c1cc(Cl)c(N)cc1OCC(=O)N1CCCC1` showed a melting point of 160 to 162 °C.
The same measure for `CN1CCN(c2cc(Cl)nc(-c3ccccc3)n2)CC1`: 91 to 92.5 °C; for `COC=C(C(=O)OC)n1ccc2ccc(-c3csc(-c4ccc(C)cc4)n3)cc21`: 145 to 146 °C.
The same measure for `CCOC(=O)Cc1cc(C)c(C(=O)c2ccc([N+](=O)[O-])cc2)n1C`: 148 to 149 °C.
In the case of `N#Cc1cccc(C2=Nc3ccc(C#Cc4ccccc4F)cc3NC(=O)C2)c1` it was 213 to 214 °C; in that of `O=C(O)c1ccc2c(c1)C(=O)C1(CC1)O2`, 215 to 228 °C.
Turning to `Cn1cncc1C(O)(c1ccc(Cl)nc1)c1ccc2noc(-c3cccc(Cl)c3)c2c1` (stereo not given), the melting point amounted to 230 °C.
On to `Nc1ccc(Br)cc1CS(=O)(=O)c1ccccc1`, for which the melting point is 140 to 141 °C.
In the case of `CCCOc1ccc(-c2ccc3c(c2)C=C(C(=O)OC)CCN3C=O)cc1` it was 152 to 153 °C; in that of `COc1ccc(Cn2cnc(=O)c3[nH]c(C(C)C)nc32)cc1OCc1ccccc1`, 233 to 235 °C.
The same measure for `COc1ccc(NN=C(Sc2ccc(S(C)(=O)=O)cc2)C(C)=O)cc1`: 145 to 153 °C; for `Cc1c(C)c2c(c(C)c1C=O)OC(C)(C)C2`: 93 °C.
In the case of `CN(C)CCN1C(=O)C(N)C(=O)N(CC2CCCCC2)c2ccccc21` (stereo not given) it was 94 to 95 °C; in that of `CCOCc1nc2c(N)nc3ccccc3c2n1CC1(OCCS(C)(=O)=O)CCNCC1`, 212 to 214 °C; in that of `O=c1cc(Oc2cccc(OCc3ccccc3)c2)c2ccccc2[nH]1`, 262 to 265 °C.
As to `CCCCc1ccc(-c2ccc(OC)cc2F)nc1`, the melting point is 23.3 °C.
`Fc1cc(F)c(-c2c(Cl)nc(-n3ccnc3)nc2NCC(F)(F)F)c(F)c1` showed a melting point of 168 to 170 °C.
On to `O=C(CCCCCn1ccnn1)NC[C@@H]1CN2C(=O)C[C@H]2O1` (racemic), for which the melting point was 108 to 109 °C.
In the case of `Cc1cccc(-c2nccc(O)n2)c1` it was 148 to 150 °C; in that of `COC(=O)N[C@H](C(=O)N[C@@H](Cc1ccccc1)[C@@H](O)CN(Cc1ccc(-c2cncs2)cc1)NC(=O)[C@@H](NC(=O)OC)C(C)(C)C)C(C)C`, 114 to 115 °C.
For `COc1ccc(-c2nnc(C(Cl)(Cl)Cl)o2)cc1OC`, the melting point is 171 to 173 °C.
Compound `CCC(=O)NCC1CC1c1cccc2nscc12` (stereo not given) showed a melting point of 84 to 86 °C.
The same measure for `CCNC(=NS(=O)(=O)c1ccc(O)cc1)N1N=CCC1c1ccccc1` (stereo not given): 158 to 160 °C; for `c1cc(CCCn2ccnc2)cc(OCc2ccc3oc(-c4cccs4)nc3c2)c1`: 86 to 87 °C; for `CCN1C(=O)C(C)(C)C(=O)N(C)c2cc(CN(CCn3ccc4sccc4c3=O)Cc3cc(C)nn3C)ccc21`: 144 to 146 °C.
The same measure for `Nc1nc2c(c(Nc3cccc(Br)c3)n1)-c1ccccc1C2`: 233 to 236 °C.
Compound `O=C1CCCCCN1CNC(=S)NCN1CCCC1=O` showed a melting point of 147 to 148 °C.
`N#Cc1ccc(-c2cc3c(O)ncnc3[nH]2)cc1` gave a melting point of more than 410 °C.
Consider `Cc1ccc2cccc(OCc3c(Cl)ccc(C4OCCO4)c3Cl)c2n1`, for which the melting point lay within 82 to 85 °C.
In turn, `CN(C)S(=O)(=O)c1cn(C)c2ccccc2c1=O` yielded a melting point of 225 to 226 °C.
The same measure for `CO/C(=C1/C(C)=C(CC(=O)O)c2cc(F)ccc21)c1ccccc1`: 184 to 186 °C; for `Nc1ccc(C(=O)c2ccccc2F)cc1`: 128 to 130 °C; for `CC(=O)N[C@@H](Cc1ccc2ccccc2c1)C(=O)OCc1cc(C)cc(C)c1`: 96 to 97 °C.
Regarding `CCCCc1nc2cnc3ccc(O)cc3c2n1C`, the melting point lay in the range of 219 to 220 °C.
